Measurements published in US11654101B2, “Use of magnolia, juniper or violet absolute in cosmetics for depigmenting the skin” (ROBERTET S.A., priority 2017, dated 2023).

Tested on: murine melanocytes B16-F10
Experiment: Tests on B16 melanocytes, dosing of the intracellular melanin
Assay type: cell-based
Settings: B16-F10 cells incubated 24 h at 37° C.; intracellular melanin content, absorbance 405 nm
Experimental: […] model tests on melanin-producing cells, the murine melanocytes B16-F10, have been necessary. The decrease in the cellular tyrosinase activity, associated with a reduction of the intracellular melanin content, while preserving the survival of the cells by non-cytotoxic concentrations, have then been investigated. For this purpose, the B16-F10 cells have been seeded into 24-well plates, and incubated for 24 h at 37° C. with several concentrations of different selected raw materials. […] Afterwards, the cells are lysed, and centrifuged. In turn, the cell pellet is dissolved by a NaOH 1N solution and incubated for 1 hour at 70° C. before being deposited in a 96-well plate put in the spectrophotometer at 405 nm. Afterwards, a comparison with the absorbance of a standard melanin calibrated range allows determining the intracellular melanin content of each condition and checking on the inhibitor effect of the melanogenesis by the different raw materials.

Effective IC50: 214 ppm
Compound: O=c1cc(CO)occ1O [Kojic acid, kojic acid]
